What was measured:
[1] = test system: amphetamine-induced hyperactivity in mice; test: Amphetamine-induced hyperactivity with tacrine or xanomeline; type: in vivo; conditions: amphetamine 3 mg/kg, pimavanserin 0.03 mg/kg where combined
Method: This study was conducted in acrylic chambers (42 cm×42 cm×30 cm) equipped with 16 infrared photobeams along each horizontal axis (front-to-back and side-to-side, from Accuscan Instruments, Inc., Columbus, Ohio). […] Vehicle or a drug (either tacrine or xanomeline) was injected 30 minutes prior to entering activity chambers. Amphetamine (3 mg/kg) was injected into mice 15 minutes prior to entering motor activity chambers. Mice had no prior exposure to the chambers and each dose combination was tested in separate groups of mice.
Activity was measured as total distance traveled (DT) in centimeters and was determined across a 15 minute session. Dose response curves were constructed for the drug in the presence of either vehicle or a fixed dose of pimavanserin. In order to generate dose-response curves, raw DT data were converted to percent inhibition, % MPI=((DT drug or drug combination−DT amphetamine control)/(DT vehicle control−DT amphetamine control))*100. A linear regression analysis was then conducted to determine the theoretical dose that would produce a 50% reduction of activity (ED50) and 95% confidence interval.

[2] = cited from earlier work
C57 BK/6 mice = conditions: test phase, FIGS. 5 and 6
Method: Subjects were male, C57 BK/6 mice purchased from Harlan Laboratories, weighing 15-20 g upon arrival. Animals were housed 8 per cage with food and water available ad libitum. Animals were housed on a 12 hr light cycle (lights on 6 am) for 4-7 days prior to behavioral testing.
Novel object recognition (NOR) was conducted in a novel environment consisting of a white plastic tub measuring 45.7×33.7×19 cm. Prior to each trial the bottom of the tub was covered with a piece of plastic lined bench top paper. There were two sets of identical objects chosen so that when given an opportunity to explore, mice would evenly divide exploration time between the objects. “A” objects were yellow, ceramic, 12-sided ramekins measuring 4 cm high×7 cm diameter. “B” objects were 8×8×4 cm stainless steel, 4-sided ramekins.
At the beginning of each test day, animals were placed in groups of 6 into clean cages. […]
During the sample phase, two identical objects (“A” or “B”, objects described above) were placed into the NOR chamber. […] The time spent exploring at each position was recorded. Directly sniffing or touching the object was recorded as exploration. […]
The test phase was conducted one to two hours after the sample phase. […] The test sessions were recorded on video and scored by an observer blind to each subject's treatment condition. Any time spent directly sniffing or touching an object was counted as exploration. […]

[3] = Half-life upon oral administration to humans; conditions: human, in vivo
[4] = test system: mice receiving ICV infusion of amyloid β protein fragment (25-35) or saline (sham); test: Amphetamine-induced hyperactivity study with amyloid β protein; type: in vivo; conditions: pimavanserin 0.3 mg/kg, amphetamine 3 mg/kg, FIG. 8
Method: This study was conducted in acrylic chambers (42 cm×42 cm×30 cm) equipped with 16 infrared photobeams along each horizontal axis (front-to-back and side-to-side, from Accuscan Instruments, Inc. (Columbus, Ohio)). Subjects were mice receiving ICV infusion of amyloid β protein fragment (25-35) or ICV infusion of saline (sham) for 7-10 days.
An amphetamine-induced hyperactivity study was conducted on the subjects. Subjects were injected with amphetamine (3 mg/kg) or vehicle 15 minutes prior to entering motor activity chambers. Activity was measured as a total distance traveled (DT) in centimeters (cm) and was determined in 20 minute increments across a 60 minute session.
Activity was measured as a total distance traveled (DT) in centimeters (cm) and was determined in 20 minute increments across a 60 minute session.

[5] = test system: 31 of the 36 human monoaminergic receptors; test: Functional activity at human monoaminergic receptors; conditions: 5-HT1A, 1B, 1D, 1E, 1F, 2B, 3, 4, 6A, 7A; adrenergic α1A, α1B, α1D, α2A, α2B, β2; dopamine D1-D4; histamine H1-H3
[6] = molecular target: dopamine receptors including the D2 and D4 receptors; test: Affinity to dopamine receptors; type: binding
[7] = test system: mice with a deletion of the M1 muscarinic receptor (M1KO) or wild-type (WT) controls; test: Hyperactivity study with M1 knock-out mice; type: in vivo
Method: A linear regression analysis was then conducted to determine the theoretical dose that would produce a 50% reduction of activity (ED50) and 95% confidence interval. Mice had no prior exposure to the chambers and each dose combination was tested in separate groups of mice.

[8] = Clearance from in vitro human microsomes; type: in vitro ADME; conditions: read-out: clearance rate from in vitro human microsomes

Row | SMILES | total distance traveled ([1]; 15 minute session, FIGS. 1 and 3) | percent inhibition of amphetamine-induced hyperactivity ([1]; FIGS. 2 and 4) | patients with elevated liver transaminases [2] | percent of time spent exploring a novel object (C57 BK/6 mice) | half-life [3] | distance traveled following amphetamine, amyloid β mice ([4]; amyloid β mice) | distance traveled following amphetamine, control mice ([4]; sham (control) mice) | functional activity (pEC50 or pKi) [5] | pKi to dopamine receptors including D2 and D4 [6] | amphetamine-induced activity, M1KO subjects ([7]; M1KO mice, amphetamine 3 mg/kg ip, FIG. 9) | amphetamine-induced activity, WT subjects ([7]; WT mice, amphetamine 3 mg/kg ip, FIG. 9) | percent inhibition of amphetamine-induced hyperactivity ([7]; as a function of pimavanserin dosage, FIG. 10) | locomotor activity, pimavanserin alone ([7]; no amphetamine, compared with vehicle controls, pimavanserin 0.03 or 0.3 mg/kg, FIG. 9) | microsomal CLint [8]
1 | Nc1c2c(nc3ccccc13)CCCC2 [tacrine] | total distance traveled decreased | greater inhibition of amphetamine-induced hyperactivity | about 30% | also increased |  |  |  |  |  |  |  |  |  | 
2 | CC(C)COc1ccc(CNC(=O)N(Cc2ccc(F)cc2)C2CCN(C)CC2)cc1 [Pimavanserin, N-(1-methylpiperidin-4-yl)-N-(4-fluorophenylmethyl)-N′-(4-(2-methylpropyloxy)phenylmethyl)carbamide] |  |  |  |  | ~55 h | reversed the augmented locomotor response to amphetamine | did not reduce the hyperactivity induced by amphetamine | < 6 | < 6 | reversed the augmented amphetamine response | did not alter amphetamine-induced activity | increased the inhibition of amphetamine-induced hyperactivity | no significant effect on locomotor activity | < 10 µL/min/mg
